Measurements as given in PubChem BioAssay AID256 (DTP/NCI, 2004).
Inconclusive results and toxic doses are left out. Rule for the calls: active = survival T/C of 150% or more; inactive = T/C below 125% in these data.

System: CD2F1 mice, L1210 leukemia ip, survival T/C
Assay: NCI In Vivo Anticancer Drug Screen. Data for tumor model L1210 Leukemia (intraperitoneal) in CD2F1 (CDF1) mice
Conditions: endpoint: mean survival time, higher = longer survival
How it was run: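 Tumor-bearing mice (transplanted tumor) were split into treated and vehicle control groups, and the measured endpoint of each treated group was divided by that of its vehicle controls.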

[1] = dose: 100.0 mg/kg/injection, schedule: Q04DX003 (ip), vehicle: saline with Tween-80
[2] = dose: 200.0 mg/kg/injection, schedule: Q04DX003 (ip), vehicle: saline with Tween-80
[3] = dose: 400.0 mg/kg/injection, schedule: Q04DX003 (ip), vehicle: saline with Tween-80
[4] = dose: 100.0 mg/kg/injection, schedule: Q01DX009 (ip), vehicle: saline with Tween-80
[5] = dose: 200.0 mg/kg/injection, schedule: Q01DX009 (ip), vehicle: saline with Tween-80
[6] = dose: 400.0 mg/kg/injection, schedule: Q01DX009 (ip), vehicle: saline with Tween-80
[7] = dose: 50.0 mg/kg/injection, schedule: Q01DX009 (ip), vehicle: saline with Tween-80
[8] = dose: 100.0 mg/kg/injection, schedule: Q01DX009 (ip), vehicle: saline
[9] = dose: 100.0 mg/kg/injection, schedule: Q04DX002 (ip), vehicle: saline with Tween-80
[10] = dose: 200.0 mg/kg/injection, schedule: Q04DX002 (ip), vehicle: saline with Tween-80
[11] = dose: 400.0 mg/kg/injection, schedule: Q04DX002 (ip), vehicle: saline with Tween-80
[12] = dose: 100.0 mg/kg/injection, schedule: Q01DX001 (ip), vehicle: saline

Measured: T/C

Cc1ccc(S(=O)(=O)OC2CNP(=O)(N(CCCl)CCCl)OC2)cc1 (stereo not given)
inactive: dose: 25.0 mg/kg/injection, schedule: Q01DX001 (ip), vehicle: DMSO 96 % of control | dose: 50.0 mg/kg/injection, schedule: Q01DX001 (ip), vehicle: DMSO 100 % of control | dose: 100.0 mg/kg/injection, schedule: Q01DX001 (ip), vehicle: DMSO 94 % of control | dose: 200.0 mg/kg/injection, schedule: Q01DX001 (ip), vehicle: DMSO 100 % of control | dose: 400.0 mg/kg/injection, schedule: Q01DX001 (ip), vehicle: DMSO 98 % of control | dose: 800.0 mg/kg/injection, schedule: Q01DX001 (ip), vehicle: DMSO 91 % of control

[NH-]NC(=S)[S-].[NH-]NC(=S)[S-].[Pd]
inactive: [1] 91 % of control

Cc1ccccc1Nc1c2ccccc2nc2ccccc12
inactive: dose: 12.5 mg/kg/injection, schedule: Q04DX003 (ip), vehicle: saline with Tween-80 98 % of control | dose: 25.0 mg/kg/injection, schedule: Q04DX003 (ip), vehicle: saline with Tween-80 104 % of control | dose: 50.0 mg/kg/injection, schedule: Q04DX003 (ip), vehicle: saline with Tween-80 87 % of control

CC(C)(O)CCC(C)(C)O
inactive: [1] 106 % of control | [2] 101 % of control | [3] 103 % of control

Nc1cn[nH]c(=O)c1
inactive: dose: 100.0 mg/kg/injection, schedule: Q01DX001 (ip), vehicle: carboxymethylcellulose (CMC) 102 % of control | dose: 200.0 mg/kg/injection, schedule: Q01DX001 (ip), vehicle: carboxymethylcellulose (CMC) 100 % of control | dose: 400.0 mg/kg/injection, schedule: Q01DX001 (ip), vehicle: carboxymethylcellulose (CMC) 92 % of control

C(=C\c1cccnc1)/c1ccncc1
inactive: [4] 97 % of control | [5] 95 % of control | [6] 106 % of control

CCCCC(CC)CO.[Ti] (stereo not given)
inactive: [7] 103 % of control | [4] 106 % of control | [5] 97 % of control

O=C1c2ccccc2-c2ccc3c4ccc5c6c(ccc(c7ccc1c2c73)c64)C(=O)c1ccccc1-5
inactive: [4] 89 % of control | [1] 90 % of control | [5] 89 % of control | [2] 87 % of control | [6] 93 % of control | [3] 96 % of control

CC(=O)O[C@@H]1[C@@H](O)C2=C3[C@]4(C)[C@@H]1C(C)(C)C(=O)C[C@@H]4[C@]3(O)[C@H](OC(C)=O)[C@@]1(C[C@@H]1C)C2=O
inactive: dose: 3.12 mg/kg/injection, schedule: Q01DX009 (ip), vehicle: distilled water + Tween-80 102 % of control | dose: 3.12 mg/kg/injection, schedule: Q01DX009 (ip), vehicle: saline 96 % of control | dose: 6.25 mg/kg/injection, schedule: Q01DX009 (ip), vehicle: distilled water + Tween-80 105 % of control | dose: 6.25 mg/kg/injection, schedule: Q01DX009 (ip), vehicle: saline 102 % of control | dose: 12.5 mg/kg/injection, schedule: Q01DX009 (ip), vehicle: distilled water + Tween-80 100 % of control | dose: 12.5 mg/kg/injection, schedule: Q01DX009 (ip), vehicle: saline 104 % of control | dose: 25.0 mg/kg/injection, schedule: Q01DX009 (ip), vehicle: distilled water + Tween-80 100 % of control | dose: 25.0 mg/kg/injection, schedule: Q01DX009 (ip), vehicle: saline 104 % of control | dose: 50.0 mg/kg/injection, schedule: Q01DX009 (ip), vehicle: distilled water + Tween-80 103 % of control | dose: 50.0 mg/kg/injection, schedule: Q01DX009 (ip), vehicle: saline 108 % of control | dose: 100.0 mg/kg/injection, schedule: Q01DX009 (ip), vehicle: distilled water + Tween-80 96 % of control | [8] 111 % of control

C1CCC(N(C2CCCCC2)C2CCCCC2)CC1
inactive: dose: 100.0 mg/kg/injection, schedule: Q01DX001 (ip), vehicle: saline with Tween-80 107 % of control | dose: 200.0 mg/kg/injection, schedule: Q01DX001 (ip), vehicle: saline with Tween-80 104 % of control | dose: 300.0 mg/kg/injection, schedule: Q01DX001 (ip), vehicle: saline with Tween-80 96 % of control

CCN(CC)C(=O)c1cc[n+](Cc2ccc(Cl)cc2)cc1
inactive: dose: 100.0 mg/kg/injection, schedule: Q04DX003 (ip), vehicle: saline 106 % of control | dose: 200.0 mg/kg/injection, schedule: Q04DX003 (ip), vehicle: saline 103 % of control

COc1ccc(/C=N\O)cc1OC
inactive: [1] 101 % of control | [2] 98 % of control | [3] 87 % of control

O=C(O)COc1cc(F)c(Cl)cc1F
inactive: [9] 102 % of control | [10] 105 % of control | [11] 109 % of control

O=C(/C=C/c1ccccc1)Nc1ccccc1Cl
inactive: [9] 105 % of control | [10] 98 % of control | [11] 98 % of control

O=C(O)CC(O)C(=O)O.[Fe] (stereo not given)
inactive: [12] 93 % of control

OCC1(OC2OC(CBr)C(O)C(O)C2O)OC(CBr)C(O)C1O (stereo not given)
inactive: [7] 98 % of control | [4] 91 % of control | [5] 95 % of control

CCOC(=O)CSCc1ccc(C(C)(C)C)cc1
inactive: [12] 96 % of control | dose: 200.0 mg/kg/injection, schedule: Q01DX001 (ip), vehicle: saline 98 % of control | dose: 400.0 mg/kg/injection, schedule: Q01DX001 (ip), vehicle: saline 93 % of control

CC1CCCC(C)N1CC(O)c1ccccc1 (stereo not given)
inactive: dose: 6.25 mg/kg/injection, schedule: Q01DX009 (ip), vehicle: saline with Tween-80 98 % of control | dose: 12.5 mg/kg/injection, schedule: Q01DX009 (ip), vehicle: saline with Tween-80 100 % of control | dose: 25.0 mg/kg/injection, schedule: Q01DX009 (ip), vehicle: saline with Tween-80 102 % of control

CCOC(=O)CNC(=O)NC
inactive: [8] 100 % of control | dose: 200.0 mg/kg/injection, schedule: Q01DX009 (ip), vehicle: saline 98 % of control | dose: 400.0 mg/kg/injection, schedule: Q01DX009 (ip), vehicle: saline 100 % of control

Cc1ccccc1-n1c(O)c(N=Nc2ccccc2)c(=O)n(-c2ccccc2)c1=S
inactive: dose: 50.0 mg/kg/injection, schedule: Q04DX003 (ip), vehicle: Klucel (hydroxypropylcellulose) (HPC) 93 % of control | dose: 100.0 mg/kg/injection, schedule: Q04DX003 (ip), vehicle: Klucel (hydroxypropylcellulose) (HPC) 94 % of control | dose: 200.0 mg/kg/injection, schedule: Q04DX003 (ip), vehicle: Klucel (hydroxypropylcellulose) (HPC) 104 % of control

O=C1NN=C(C2CCCCC2)C12CCCCC2
inactive: [1] 96 % of control | [2] 100 % of control | [3] 94 % of control

CCCCC(CC)COCC1CO1 (stereo not given)
inactive: dose: 50.0 mg/kg/injection, schedule: Q01DX009 (ip), vehicle: Klucel (hydroxypropylcellulose) (HPC) 102 % of control | dose: 100.0 mg/kg/injection, schedule: Q01DX009 (ip), vehicle: Klucel (hydroxypropylcellulose) (HPC) 96 % of control | dose: 200.0 mg/kg/injection, schedule: Q01DX009 (ip), vehicle: Klucel (hydroxypropylcellulose) (HPC) 100 % of control

O=C1COC(C(Cl)(Cl)Cl)CN1 (stereo not given)
inactive: [4] 98 % of control | [1] 102 % of control | [5] 95 % of control | [2] 100 % of control | [6] 102 % of control | [3] 104 % of control

CCN(CC)CCN(C)C(O)(C(=O)c1ccccc1)C1CCCCC1 (stereo not given)
inactive: dose: 75.0 mg/kg/injection, schedule: Q01DX001 (ip), vehicle: saline 105 % of control | dose: 150.0 mg/kg/injection, schedule: Q01DX001 (ip), vehicle: saline 102 % of control | dose: 300.0 mg/kg/injection, schedule: Q01DX001 (ip), vehicle: saline 100 % of control
